Experimental data published in patent publication US6310095A, “Inhibitors of protein isoprenyl transferases” (University of Pittsburgh, priority 1998, dated 2001).

The compounds below were run against T1, protein farnesyltransferase (Rattus norvegicus, UniProt Q02293+Q04631) (assay: in vitro inhibition of protein farnesyltransferase (scintillation proximity assay, biotin-K Ras B fragment)). Details: at 1 × 10^-6 M.
T1 construct: Rat brain protein farnesyltransferase activity is measured; from tissue; host or cells: rat brain; purified according to Reiss et al., Cell 62:81-88 (1990), steps one through three
Format: biochemical
In short: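 Rat brain enzyme, purified through three steps, in a scintillation proximity assay kit with biotin-K Ras B fragment substrate at 0.1 mM final. Value is % inhibition of farnesylation.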

% inhibition of farnesyltransferase [%] | SMILES
97 | CSCC[C@H](NC(=O)c1ccc(OC/C=C(\C)CCC=C(C)C)cc1-c1ccccc1C)C(=O)O [Example 546]
91 | CSCC[C@H](NC(=O)c1ccc(OC/C=C(\C)CC/C=C(\C)CCC=C(C)C)cc1-c1ccccc1C)C(=O)O [Example 547]
92 | CSCC[C@H](NC(=O)c1ccc(OCCC23CC4CC(CC(C4)C2)C3)cc1-c1ccccc1C)C(=O)O [Example 553]
85 | CSCC[C@H](NC(=O)c1ccc(CS(=O)(=O)Cc2ccccc2)cc1-c1ccccc1C)C(=O)O [Example 555]
91 | CSCC[C@H](NC(=O)c1ccc(OC/C=C/c2ccccc2)cc1-c1ccccc1C)C(=O)O [Example 560]
91 | CSCC[C@H](NC(=O)c1ccc(OCCOc2ccccc2)cc1-c1ccccc1C)C(=O)O [Example 561]
98 | CSCC[C@H](NC(=O)c1ccc(OCCCC2CCCCC2)cc1-c1ccccc1C)C(=O)O [Example 564]
98 | CSCC[C@H](NC(=O)c1ccc(OCCCOc2ccccc2)cc1-c1ccccc1C)C(=O)O [Example 566]
93 | CSCC[C@H](NC(=O)c1ccc(OCCCCOc2ccccc2)cc1-c1ccccc1C)C(=O)O [Example 568]
70 | CSCC[C@H](NC(=O)c1ccc(COCc2ccccc2)cc1-c1ccccc1)C(=O)O [Example 575]
88 | Cc1ccccc1-c1cc(COCc2ccccc2)ccc1C(=O)N[C@@H](CCS(C)(=O)=O)C(=O)O [Example 576]
99 | CSCC[C@H](NC(=O)c1ccc(COCc2ccccc2)cc1-c1ccccc1C)C(=O)NS(=O)(=O)c1ccc(C)cc1 [Example 582]

SMILES | % inhibition of farnesyltransferase [%]
CSCC[C@H](NC(=O)c1ccc(CSC2CCCCC2)cc1-c1ccccc1C)C(=O)[O-].[Li+] [Example 550] | 96
CSCC[C@H](NC(=O)c1ccc(OCCC2CCCCC2)cc1-c1ccccc1C)C(=O)[O-].[Li+] [Example 552] | 88
CSCC[C@H](NC(=O)c1ccc(CSCc2ccccc2)cc1-c1ccccc1C)C(=O)[O-].[Li+] [Example 554] | 96
CSCC[C@H](NC(=O)c1ccc(CSCc2ccc(C)cc2)cc1-c1ccccc1C)C(=O)[O-].[Li+] [Example 556] | 99
CSCC[C@H](NC(=O)c1ccc(CSCc2ccccc2C)cc1-c1ccccc1C)C(=O)[O-].[Li+] [Example 557] | 93
CSCC[C@H](NC(=O)c1ccc(OCCOC2CCCCC2)cc1-c1ccccc1C)C(=O)[O-].[Li+] [Example 565] | 94
CSCC[C@H](NC(=O)c1ccc(CC(Cc2ccccc2)c2ccccc2)cc1-c1ccccc1C)C(=O)[O-].[Li+] (stereo partly drawn) [Example 572] | 91
CSCC[C@H](NC(=O)c1ccc(COCc2ccccc2C)cc1-c1ccccc1C)C(=O)[O-].[Li+] [Example 577] | 94
CSCC[C@H](NC(=O)c1ccc(COCc2ccc3ccccc3c2)cc1-c1ccccc1C)C(=O)[O-].[Li+] [Example 583] | 98
CSCC[C@H](NC(=O)c1ccc(COCCc2ccccc2)cc1-c1ccccc1C)C(=O)[O-].[Li+] [Example 587] | 97
CSCC[C@H](NC(=O)c1ccc(COCCCc2ccccc2)cc1-c1ccccc1C)C(=O)[O-].[Li+] [Example 595] | 97

Same assay, conditions: at 1 × 10^-7 M

SMILES | % inhibition of farnesyltransferase [%]
CSCC[C@H](NC(=O)c1ccc(CSc2ccc3ccccc3c2)cc1-c1ccccc1C)C(=O)O [Example 551] | 93
CSCC[C@H](NC(=O)c1ccc(CSCC2CCCCC2)cc1-c1ccccc1C)C(=O)[O-].[Li+] [Example 559] | 96
CSCC[C@H](NC(=O)c1ccc(CSCCc2ccccc2)cc1-c1ccccc1C)C(=O)[O-].[Li+] [Example 562] | 95
CSCC[C@H](NC(=O)c1ccc(COCc2ccccc2)cc1-c1ccccc1C)C(=O)[O-].[Li+] [Example 571] | 88
CSCC[C@H](NC(=O)c1ccc(COc2ccc3ccccc3c2)cc1-c1ccccc1C)C(=O)O [Example 573] | 72
CSCC[C@H](NC(=O)c1ccc(COc2cccc3ccccc23)cc1-c1ccccc1C)C(=O)O [Example 574] | 81
CSCC[C@H](NC(=O)c1ccc(COCc2cccc(C)c2)cc1-c1ccccc1C)C(=O)[O-].[Li+] [Example 578] | 90
CSCC[C@H](NC(=O)c1ccc(COCc2ccc(C)cc2)cc1-c1ccccc1C)C(=O)[O-].[Li+] [Example 579] | 92
CSCC[C@H](NC(=O)c1ccc(COCc2ccccc2)cc1-c1ccccc1C)C(=O)NS(=O)(=O)c1ccccc1 [Example 580] | 90
CSCC[C@H](NC(=O)c1ccc(COCc2cccc3ccccc23)cc1-c1ccccc1C)C(=O)[O-].[Li+] [Example 584] | 96
CSCC[C@H](NC(=O)c1ccc(COCC2CCCCC2)cc1-c1ccccc1C)C(=O)[O-].[Li+] [Example 585] | 96
COc1ccccc1CCOCc1ccc(C(=O)N[C@@H](CCSC)C(=O)O)c(-c2ccccc2C)c1 [Example 589] | 91
CSCC[C@H](NC(=O)c1ccc(COCCc2ccc(Cl)cc2)cc1-c1ccccc1C)C(=O)[O-].[Li+] [Example 590] | 95
CSCC[C@H](NC(=O)c1ccc(COCCc2cccc3ccccc23)cc1-c1ccccc1C)C(=O)[O-].[Li+] [Example 592] | 93
CSCC[C@H](NC(=O)c1ccc(COCCc2ccc3ccccc3c2)cc1-c1ccccc1C)C(=O)[O-].[Li+] [Example 593] | 86
CSCC[C@H](NC(=O)c1ccc(COCCC2CCCCC2)cc1-c1ccccc1C)C(=O)[O-].[Li+] [Example 594] | 95
CSCC[C@@H](C(=O)[O-])N(C)C(=O)c1ccc(COCCCC2CCCCC2)cc1-c1ccccc1C.[Li+] [Example 597] | 75

Same assay, conditions: at 1 × 10^-7 M; read-out: % inhibition of farnesyltransferase

inhibition at 0.1 µM [%] | SMILES
86 | CSCC[C@H](NC(=O)c1ccc(CN(Cc2ccccc2)Cc2nccs2)cc1-c1ccccc1C)C(=O)O [Example 548, N-[4-N-benzyl-N-(thiazol-2-ylmethyl)aminomethyl-2-(2-methylphenyl)benzoyl]methionine]
98 | CSCC[C@H](NC(=O)c1ccc(CN(Cc2ccccc2)Cc2cncs2)cc1-c1ccccc1C)C(=O)O [Example 549, N-[4-N-benzyl-N-(thiazol-5-ylmethyl)aminomethyl-2-(2-methylphenyl)benzoyl]methionine]

Same assay, conditions: at 1 × 10^-8 M

SMILES | % inhibition of farnesyltransferase [%]
CSCC[C@H](NC(=O)c1ccc(CSCc2ccccc2)cc1-c1ccccc1C)C(=O)NS(=O)(=O)c1ccc(C)cc1 [Example 586] | 90
CSCC[C@H](NC(=O)c1ccc(COCCc2ccccc2Cl)cc1-c1ccccc1C)C(=O)[O-].[Li+] [Example 588] | 68
CSCC[C@H](NC(=O)c1ccc(COCCc2ccc(Cl)cc2Cl)cc1-c1ccccc1C)C(=O)[O-].[Li+] [Example 591] | 82
